Patent publication US4746663A, “Pyrazolo[4,3-d]pyrimidine derivative, process for its production, and antihyperlipidemic or antiatherosclerotic agent containing it” (Nissan Chemical Industries Ltd., priority 1985, dated 1988)
Entries after “also recorded” stand apart in the source; their conditions may differ.

Key:
[1] = test system: serum lipid; settings: Science, 193, 903 (1976); J. Lipid Res., 12, 596 (1971); cited from earlier work
[2] = animal experiments; Cancer Res., 39, 3419 (1979); cited from earlier work
[3] = literature, in words; cited from earlier work
[4] = test system: emulsion-induced hyperlipidemic rats; test: Test 1: antihyperlipidemic activity in emulsion-induced hyperlipidemic rats; type: in vivo, Male S.D. rats; settings: via stomach tube daily, 3 days; for Reduction rate of serum Chol. / Increase rate of serum HDLChol.: vs control group; for Degree of hepatomegaly (change rate of the liver weight): liver weight per 100 g body weight vs control group
Procedure: The antihyperlipidemic activity in emulsion-induced hyperlipidemic rats:
Male S.D. rats weighing 80-90 g (4 weeks old) were used. They were divided into groups of 5 to 6 rats each. The test compounds suspended in 0.5% CMC-Na(carboxymethyl cellulose sodium salt) were given to the rats in a daily dose of 4 ml/kg via stomach tube every 10:00 a.m. After 30 min., lipids emulsion having the following composition was orally given to the rats in an amount of 2.5 ml per rat.
During the experimental period of 3 days, the rats were fed on a standard commercial diet and water ad libitum. […] The total cholesterol and HDL cholesterol were measured.
The weight of the liver was measured. To the control group, only the aqueous CMC-Na solution and the lipids emulsion were given.
The fractionation of lipoproteins was conducted by a dextran sulfate-MgCl2 precipitation method.
Cholesterol in serum was measured by means of a cholesterol measuring kit (Cholesterol C-Test Wako, manufactured by Wako Junyaku Co., Ltd.), and cholesterol in HDL was measured by means of NC Hi-Set, manufactured by Nippon Chemiphar Co., Ltd.
Further, the reduction rate of Chol was calculated by the following equation. [formula] where A is the amount of serum Chol (mg/dl) of the control group, and B is the amount of serum Chol (mg/dl) of the group to which the therapeutic agent was administered.
Likewise, the increase rate of HDL-Chol was calculated by the following equation. [formula] where C is the amount of serum HDL-Chol (mg/dl) of the control group, and D is the amount of serum HDL-Chol (mg/dl) of the group to which the therapeutic agent was administered.
The degree of hepatomegaly (i.e. the change rate of the liver weight) was calculated by the following equation. [formula] where E is the liver weight (g) per 100 g of the body weight of the control group, and F is the liver weight (g) per 100 g of the body weight of the group to which the therapeutic agent was administered.

[5] = Test 2: acute toxicity; settings: mouse, in vivo, po, 1000 mg/kg in corn oil, male ddY mice, after seven days
Procedure: The test compounds dissolved in corn oil were administered p.o. to male ddY mice. The acute toxicity was determined based on the mortality after seven days. In respect of the compounds of Examples 1 and 2 of the present invention, the mortality was 0% even at a dose of as high as 1000 mg/kg by oral administration.

[6] = 300 mg/kg, minus value represents a reduction rate

Structure (SMILES)	subsidiary ill effects [3]	Reduction rate of serum Chol. ([4]; 300 mg/kg) [%]	Increase rate of serum HDLChol. [4, 6] [%]	Degree of hepatomegaly (change rate of the liver weight) ([4]; 300 mg/kg) [%]	mortality at 168 h [5] [%]	further results
Nc1ncnc2[nH]ncc12 [1H-pyrazolo[3,4-d]pyrimidine-4-amine]						function to reduce serum lipid [1]: function to reduce serum lipid
CCOC(=O)C(C)(C)Oc1ccc(Cl)cc1 [Clofibrate, reference compound]	myalgia or hepatic insufficiency; also recorded: likely to lead to gallstone formation	35.6	-18.2	12.1		hepatic carcinoma [2]: brings about hepatic carcinoma
CCCCCCCCCCCCCCCCOc1c2ncnc(SCC(=O)O)c2nn1C [Example 2, 2-Methyl-3-cetyloxy-7-carboxymethylthio-pyrazolo[4,3-d]pyrimidine]		41.0	14.1	9.2	0	
O=C(O)c1cccnc1 [nicotinic acid]	flashing or gastroenteric troubles					
CCCCC/C=C\C/C=C\CCCCCCCCOc1c2ncnc(SCC(=O)O)c2nn1C [Example 1, 2-Methyl-3-linoleyloxy-7-carboxymethylthio-pyrazolo[4,3-d]pyrimidine]		73.5	-17.7	17.8	0	Increase rate of serum HDLChol. ([4]; 25 mg/kg): 21.8%; Reduction rate of serum Chol. ([4]; 25 mg/kg): 25.6%; Degree of hepatomegaly (change rate of the liver weight) ([4]; 25 mg/kg): 6.0%; Increase rate of serum HDLChol. ([4]; 50 mg/kg): 13.4%; Reduction rate of serum Chol. ([4]; 50 mg/kg): 35.5%; Degree of hepatomegaly (change rate of the liver weight) ([4]; 50 mg/kg): 7.6%
